One molecule from patent US20170128426A1, “NOVEL DOSAGE AND FORMULATION” (Almirall, S.A., priority 2012, published 2017) can be followed below.

This series is described as follows: Solubility of aclidinium bromide in solvents. The series is classed as physicochemical. The text has this: Aclidinium bromide is a white powder with a molecular formula of C26H30NO4S2Br and a molecular mass of 564.56. […] This compound is known to be a long-acting anticholinergic useful in the treatment of respiratory diseases.

SMILES strings stand for the structures.

With `O=C(O[C@H]1C[N+]2(CCCOc3ccccc3)CCC1CC2)C(O)(c1cccs1)c1cccs1.[Br-]` [Aclidinium bromide, 3(R)-(2-hydroxy-2,2-dithien-2-ylacetoxy)-1-(3-phenoxypropyl)-1-azoniabicyclo[2.2.2]octane bromide], where the note is “ethanol”, the solubility in ethanol result was “very slightly soluble”. Besides, the solubility in methanol entry (methanol) is “sparingly soluble”. The solubility in water entry (water) was “very slightly soluble”.
